Laboratory results: patent US11311593B2, “Root extracts from plants of the Morus genus and uses of same” (PLANT ADVANCED TECHNOLOGIES PAT, priority 2017, dated 2022)

Molecular target: T1, hyaluronidase originating from bull testicles (type IV-S) (Bos taurus, UniProt Q2YDK3)
T1 construct: hyaluronidase originating from bull testicles (type IV-S); from tissue; host or cells: bull testicles
T1 sequence (Q2YDK3 36-553): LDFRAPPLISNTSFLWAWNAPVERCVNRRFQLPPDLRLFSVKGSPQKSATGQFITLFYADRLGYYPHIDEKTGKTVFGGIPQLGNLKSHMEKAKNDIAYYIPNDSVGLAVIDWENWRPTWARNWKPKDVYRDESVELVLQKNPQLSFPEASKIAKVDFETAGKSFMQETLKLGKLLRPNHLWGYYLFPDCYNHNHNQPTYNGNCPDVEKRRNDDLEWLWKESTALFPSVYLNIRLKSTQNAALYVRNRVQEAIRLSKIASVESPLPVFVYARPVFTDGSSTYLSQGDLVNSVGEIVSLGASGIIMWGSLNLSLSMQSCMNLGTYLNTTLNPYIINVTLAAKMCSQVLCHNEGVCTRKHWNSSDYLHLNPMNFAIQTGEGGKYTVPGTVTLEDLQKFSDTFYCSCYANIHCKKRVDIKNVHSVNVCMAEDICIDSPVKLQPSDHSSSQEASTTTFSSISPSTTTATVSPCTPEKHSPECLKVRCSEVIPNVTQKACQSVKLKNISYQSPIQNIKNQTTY
Experiment: Anti-hyaluronidase inhibiting activity, hyaluronic acid as substrate, precipitation with acidic BSA
Format: biochemical
Procedure: A root extract of Morus Alba was prepared in accordance with the protocol described in Example 5. Hyaluronidase catalyzes the hydrolysis of hyaluronic acids into monosaccharides, disaccharides and short oligosaccharides. The measurement of the anti-hyaluronidase inhibiting activity was carried out using hyaluronic acid (HA) as a substrate in order to follow its reduction during the enzymatic reaction, the slope of the reduction of the concentration of HA during the reaction being proportional to the enzymatic activity.
The concentration of HA was measured in accordance with the following principle: in the presence of an acidic solution of bovine serum albumin, HA precipitates. Thus, in the case of the presence of HA, a precipitate is formed and in the case of complete hydrolysis of the HA, no precipitate is observed. Thus, the quantity of precipitation is proportion& to the HA content. […]
In order to follow the enzymatic degradation of the HA, a volume of 50 μl of RM was removed every 15 minutes, mixed with a volume of 250 μL of the solution of acidic BSA (acidic solution of bovine serum albumin: 24 mM sodium acetate, 79 mM acetic add and 0.1% (w/v) bovine serum albumin, pH 3.75) then incubated for 10 min at ambient temperature. The quantity of precipitate formed was then measured using a plate reader (diffusion of light at 600 nm). […]

Work on `CC(C)=CCc1c(O)ccc(C(=O)[C@@H]2CC(C)=C[C@H](c3c(O)cc(O)c4c(=O)c(CC=C(C)C)c(-c5ccc(O)cc5O)oc34)[C@H]2c2ccc(O)cc2O)c1O` [Moracenin A, moracenin A] yielded an inhibition at 10 µM of 55.1%.
